Measured values taken from patent publication US10227347B2, “Purinyl-N-hydroxyl pyrimidine formamide derivative, preparation methods and uses thereof” (Guizhou Bailing Group Pharmaceutical CO., LTD., priority 2015, dated 2019).
pIC50: −log10 of the molar value. Like-named read-outs stand apart in the source and are kept apart here.

Columns and labels:
HDAC1 = biological target: T1, HDAC1 (Homo sapiens, UniProt Q13547); assay: In vitro HDAC1 enzymatic activity inhibition (Lys-Ac-AMC substrate); type: biochemical
T1 construct: purchased BPS Bioscience
T1 sequence (Q13547 whole entry, species assumed): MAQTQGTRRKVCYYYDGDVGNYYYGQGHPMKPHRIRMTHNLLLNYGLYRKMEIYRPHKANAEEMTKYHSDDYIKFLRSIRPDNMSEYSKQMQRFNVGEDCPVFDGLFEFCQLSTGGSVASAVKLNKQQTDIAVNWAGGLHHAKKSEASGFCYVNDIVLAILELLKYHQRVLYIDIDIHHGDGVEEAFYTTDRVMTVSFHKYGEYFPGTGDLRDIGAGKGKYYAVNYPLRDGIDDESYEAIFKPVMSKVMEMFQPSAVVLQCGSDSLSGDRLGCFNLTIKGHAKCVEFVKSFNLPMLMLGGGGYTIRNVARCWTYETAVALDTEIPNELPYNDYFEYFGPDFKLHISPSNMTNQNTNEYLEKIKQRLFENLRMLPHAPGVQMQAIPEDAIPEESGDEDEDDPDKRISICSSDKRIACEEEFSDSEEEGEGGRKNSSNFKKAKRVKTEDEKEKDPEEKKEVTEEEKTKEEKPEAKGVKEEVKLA
Protocol: Determining the inhibition capability to HDAC activity through the substrate method of fluorophore 4-amino-7-coumarin coupled Ac-peptide (Lys-Ac-AMC). HDAC1 protein is purchased from BPS Bioscience Company; the reaction buffer system is a modified tris(hydroxymethyl)aminomethane (TRIS) buffer (pH7.0). All small molecule compounds are prepared and dissolved by 100% DMSO (dimethyl sulfoxide). HDAC is prepared into the buffer as per certain concentration to be served as the enzyme solution; trypsin and the fluorophore 4-amino-7-coumarin coupled Ac-peptide substrate are prepared into the buffer as per certain concentration to be served as the substrate solution. Adding the compound into the reaction wells of the 384 well plate at the designed concentration, then adding 15 μL HDAC solution into the reaction wells (adding 15 μL blank buffer into the control well 0) for incubation under ambient temperature for 15 min; then adding 10 μL substrate solution to start reaction; during the reaction, the final concentration of HDAC1 protein is 6 nM, trypsin 0.05 μM and Ac-peptide 8 μM.
(§1) Calculating the value of IC50 as per the formula: Y=background data+(top data−background data)/(1+10^((Log IC50−X)*rate of curve))
Where, Y refers to the inhibition ratio (%) and X refers to the compound concentration. […]
Analyzing the result data with the software GraphPad Prism and calculating the value of IC50 as per the formula: Y=background data+(top data−background data)/(1+10^((Log IC50−X)*rate of curve)). Where, Y refers to the inhibition ratio (%) and X refers to the compound concentration.

PI3Kα = biological target: T2, PI3Kα (Homo sapiens, UniProt P42336); assay: PI3Kα activity inhibition (Kinase-Glo); type: biochemical; details: Table 1, graded; read-out: PI3Kα IC50
T2 construct: purchased Invitrogen PV4788
T2 sequence (P42336 whole entry, species assumed): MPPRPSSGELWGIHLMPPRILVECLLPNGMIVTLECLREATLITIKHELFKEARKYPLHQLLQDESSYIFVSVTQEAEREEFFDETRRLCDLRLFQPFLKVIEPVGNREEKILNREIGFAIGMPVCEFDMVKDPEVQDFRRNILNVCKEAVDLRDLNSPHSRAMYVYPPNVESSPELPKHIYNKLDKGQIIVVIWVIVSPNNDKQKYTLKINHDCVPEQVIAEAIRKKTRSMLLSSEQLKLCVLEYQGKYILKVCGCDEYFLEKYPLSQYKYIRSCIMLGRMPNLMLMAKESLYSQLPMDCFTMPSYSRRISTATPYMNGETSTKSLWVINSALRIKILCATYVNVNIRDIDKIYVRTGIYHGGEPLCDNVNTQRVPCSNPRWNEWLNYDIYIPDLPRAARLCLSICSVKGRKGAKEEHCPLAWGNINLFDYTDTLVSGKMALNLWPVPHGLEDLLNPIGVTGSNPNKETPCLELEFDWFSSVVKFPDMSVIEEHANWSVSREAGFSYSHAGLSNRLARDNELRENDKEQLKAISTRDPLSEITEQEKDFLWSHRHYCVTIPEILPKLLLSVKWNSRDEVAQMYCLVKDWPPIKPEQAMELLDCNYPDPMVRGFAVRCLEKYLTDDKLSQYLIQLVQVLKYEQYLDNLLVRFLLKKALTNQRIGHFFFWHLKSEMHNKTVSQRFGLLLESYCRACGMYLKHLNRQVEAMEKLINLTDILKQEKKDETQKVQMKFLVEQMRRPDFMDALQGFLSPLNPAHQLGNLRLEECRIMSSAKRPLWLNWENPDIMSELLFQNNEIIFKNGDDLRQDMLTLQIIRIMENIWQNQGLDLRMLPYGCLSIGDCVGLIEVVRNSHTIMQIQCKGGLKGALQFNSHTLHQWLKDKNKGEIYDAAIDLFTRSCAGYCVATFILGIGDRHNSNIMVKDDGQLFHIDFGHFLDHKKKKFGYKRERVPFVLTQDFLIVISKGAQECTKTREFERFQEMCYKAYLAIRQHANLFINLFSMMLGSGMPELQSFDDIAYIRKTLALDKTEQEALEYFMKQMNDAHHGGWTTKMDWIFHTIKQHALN
T2 sequence (P27986 whole entry partner, species assumed): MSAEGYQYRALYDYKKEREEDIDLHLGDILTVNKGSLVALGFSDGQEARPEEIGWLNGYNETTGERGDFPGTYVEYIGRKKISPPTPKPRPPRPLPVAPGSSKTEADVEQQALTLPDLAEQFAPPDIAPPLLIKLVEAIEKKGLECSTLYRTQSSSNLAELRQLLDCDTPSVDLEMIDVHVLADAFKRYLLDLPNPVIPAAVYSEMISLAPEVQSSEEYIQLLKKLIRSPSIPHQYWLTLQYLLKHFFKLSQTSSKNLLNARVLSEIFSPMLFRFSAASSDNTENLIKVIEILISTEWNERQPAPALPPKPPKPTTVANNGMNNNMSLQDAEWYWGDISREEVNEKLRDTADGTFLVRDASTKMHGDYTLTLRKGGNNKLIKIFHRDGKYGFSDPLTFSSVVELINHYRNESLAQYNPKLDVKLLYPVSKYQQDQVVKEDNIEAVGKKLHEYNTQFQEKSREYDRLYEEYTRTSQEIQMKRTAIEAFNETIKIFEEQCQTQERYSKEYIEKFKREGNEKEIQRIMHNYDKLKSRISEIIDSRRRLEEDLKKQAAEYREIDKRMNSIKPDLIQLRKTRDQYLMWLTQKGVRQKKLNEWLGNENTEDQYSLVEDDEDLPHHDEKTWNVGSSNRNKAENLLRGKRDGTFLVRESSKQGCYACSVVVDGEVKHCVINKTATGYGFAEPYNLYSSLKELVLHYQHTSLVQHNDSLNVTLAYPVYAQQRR
Protocol: Detecting the inhibition capability of the compound to PI3Kα and PI3Kδ activities with Kinase-Glo (purchased from Promege Company; Catalog No.: V3771). […] The reaction system also comprises substrates as PIP2 (4, 5-diphosphoinositide, purchased from Life Technologies Company) and ATP (triphosadenine, purchased from Sigma Company). The reaction buffer system comprises 50 mM HEPES (4-hydroxyethylpiperazine ethane sulfonic acid), 3 mM MgCl2, 1 mM EGTA (ethylene glycol bis(2-amino ethylether)quadrol), 100 mM NaCl, 0.03% CHAPS (3-[3-(cholamidopropyl)dimethylamino]-1-propanesulfonic acid), 2 mM DTT (dithiothreitol). The pH value of the reaction buffer is 7.5. […] Mixing the system evenly for incubation under ambient temperature (for 1 h in PI3Kα test and for 2 h in PI3Kδ test). After incubation, adding 10 μL Kinase-Glo which has been preheated to ambient temperature into each reaction well to terminate the reaction; shaking it in dark place for 15 min after it is mixed evenly, then measuring the fluorescence intensity with a microplate reader and analyzing the result data with the software GraphPad Prism.
as §1
Where, Y refers to the inhibition ratio (%) and X refers to the compound concentration.

[1] = Table 1, graded, read-out: HDAC1 IC50
[2] = read-out: inhibition value IC50 to the activity of HDAC1

Row | Compound | pIC50 (HDAC1; [1]) | pIC50 (PI3Kα) | pIC50 (HDAC1; [2])
1 | 2-(((2-(2-(3-(1-hydroxyethyl)2-phenyl)-9-methyl-6-morpholine-9H-purine-8-yl))methyl(methyl)amino)-N-hydroxyl pyrimidine-5-formamide [CLJ-39] | > 7.00 | < 5.00 | 
2 | 2-(((2-(4-((2-hydroxycaproyl)sulfydryl)phenyl)-9-methyl-6-morpholine-9H-purine-8-yl))methyl(methyl)amino)-N-hydroxyl pyrimidine-5-formamide [CLJ-42] | > 7.00 | < 5.00 | 
3 | CCCCn1c(CN(C)c2ncc(C(=O)NO)cn2)nc2c(N3CCOCC3)nc(-c3ccc(OC)cc3)nc21 [CLJ-33, N-hydroxy-2-(((2-(4-methoxyphenyl)-6-morpholino-9-butyl-9H-purine-8-yl)methyl)(methyl)amino)pyrimidine-5-formamide] | 6.00 to 7.00 | < 5.00 | 
4 | COc1ccc(-c2nc(N3CCOCC3)c3nc(CNc4ncc(C(=O)NO)cn4)n(C)c3n2)cc1 [CLJ-34, N-hydroxy-2-(((2-(4-methoxyphenyl)-9-methyl-6-morpholine-9H-purine-8-yl)methyl)amino)pyrimidine-5-formamide] | > 7.00 | < 5.00 | 
5 | CC(C)COc1ccc(-c2nc(N3CCOCC3)c3nc(CN(C)c4ncc(C(=O)NO)cn4)n(C)c3n2)cc1 [CLJ-43, 2-(((2-(4-isobutoxyphenyl)-9-methyl-6-morpholine-9H-purine-8-yl))methyl(methyl)amino)-N-hydroxyl pyrimidine-5-formamide] | > 7.00 | < 5.00 | 
6 | CN(C)c1ccc(-c2nc(N3CCOCC3)c3nc(CN(C)c4ncc(C(=O)NO)cn4)n(C)c3n2)cc1 [CLJ-46] | > 9.00 | < 5.00 | > 9.00

Continued, values first:

Row | pIC50 (HDAC1; [1]) | pIC50 (PI3Kα) | pIC50 (HDAC1; [2]) | Compound
7 | > 9.00 | < 5.00 | > 9.00 | CN(Cc1nc2c(N3CCOCC3)nc(-c3ccco3)nc2n1C)c1ncc(C(=O)NO)cn1 [CLJ-26, 2-(((2-(2-furyl)-9-methyl-6-morpholine-9H-purine-8-yl))methyl(methyl)amino)-N-hydroxyl pyrimidine-5-formamide]
8 | 6.00 to 7.00 | < 5.00 |  | CN(Cc1nc2c(N3CCOCC3)nc(-c3ccc(O)cc3)nc2n1C)c1ncc(C(=O)NO)cn1 [CLJ-28, 2-(((2-(4-hydroxyphenyl)-9-methyl-6-morpholine-9H-purine-8-yl))methyl(methyl)amino)-N-hydroxyl pyrimidine-5-formamide]
9 | > 9.00 | < 5.00 | > 9.00 | CN(Cc1nc2c(N3CCOCC3)nc(-c3ccc4c(c3)OCCO4)nc2n1C)c1ncc(C(=O)NO)cn1 [CLJ-37, 2-(((2-(benzo[d][1.4]dioxyheterocyclic hexylene-6-yl)-9-methyl-6-morpholine-9H-purine-8-yl))methyl(methyl)amino)-N-hydroxyl pyrimidine-5-formamide]
10 | > 7.00 | < 5.00 |  | CN(Cc1nc2c(N3CCOCC3)nc(-c3cccc(CO)c3)nc2n1C)c1ncc(C(=O)NO)cn1 [CLJ-40, 2-(((2-(3-(hydroxymethyl)phenyl)-9-methyl-6-morpholine-9H-purine-8-yl))methyl(methyl)amino)-N-hydroxyl pyrimidine-5-formamide]
11 | 6.00 to 7.00 | 6.00 to 7.00 |  | CN(Cc1nc2c(N3CCOCC3)nc(-c3cccc(OCCO)c3)nc2n1C)c1ncc(C(=O)NO)cn1 [CLJ-41, 2-(((2-(3-(2-hydroxylethyoxyl)phenyl)-9-methyl-6-morpholine-9H-purine-8-yl))methyl(methyl)amino)-N-hydroxyl pyrimidine-5-formamide]
12 | 5.00 to 6.00 | < 5.00 |  | CCCn1c(CN(C)c2ncc(C(=O)NO)cn2)nc2c(N3CCOCC3)nc(-c3ccc(N)cc3)nc21 [CLJ-45, N-hydroxy-2-(((2-(4-aminophenyl)-6-morpholino-9-propyl-9H-purine-8-yl)methyl)(methyl)amino)pyrimidine-5-formamide]
